Where two headings read alike, the source gives them in different places.
Columns and labels:
[1] = target: T1, STS (Homo sapiens, UniProt P08842); details: cited from earlier work
T1 sequence (P08842 22-583): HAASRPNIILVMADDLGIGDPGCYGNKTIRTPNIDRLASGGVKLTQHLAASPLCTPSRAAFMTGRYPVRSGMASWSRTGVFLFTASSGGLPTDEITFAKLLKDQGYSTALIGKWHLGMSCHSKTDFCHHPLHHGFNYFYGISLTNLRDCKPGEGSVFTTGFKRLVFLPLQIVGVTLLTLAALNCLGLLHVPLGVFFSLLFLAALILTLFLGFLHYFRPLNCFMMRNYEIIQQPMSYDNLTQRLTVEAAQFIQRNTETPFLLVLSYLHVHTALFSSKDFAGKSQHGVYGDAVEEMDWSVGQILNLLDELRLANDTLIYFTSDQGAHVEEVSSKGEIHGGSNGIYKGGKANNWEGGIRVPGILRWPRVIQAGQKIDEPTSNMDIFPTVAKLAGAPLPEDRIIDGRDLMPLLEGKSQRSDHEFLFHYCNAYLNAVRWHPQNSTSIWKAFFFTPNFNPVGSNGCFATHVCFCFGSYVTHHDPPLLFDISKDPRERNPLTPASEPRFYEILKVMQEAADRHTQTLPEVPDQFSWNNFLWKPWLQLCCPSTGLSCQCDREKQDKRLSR

[2] = Serum hormonal profile (E2, P4, T, D4A) by ELISA; type: in vivo, healthy pre-menopausal women; details: for mean concentration-time profiles for D4A / mean concentration-time profiles for T: after multiple dose administration; for E2 concentrations / P4 concentrations: mean concentration-time profile, suppression during the first cycle up to Day 29, normal increase on Day 43
Protocol: (§1) Blood samples were collected from each subject in order to determine pharmacodynamic parameters (sulfatase activity and hormonal profile).
(§2) STS activity was determined by spiking specimens with labelled EI-S and by measuring its conversion to E1 per gram protein under standardized incubation conditions using LC-MS/MS. Protein concentration was evaluated with a validated colorimetric assay (Bradford method). The serum samples for hormonal profile were analysed by specific and validated ELISA methods.

[3] = multiple doses of 4 mg E2MATE, 10 mg NETA, for 4 weeks
[4] = Follow-up effect on post-treatment menstruation cycles (ovarian and transvaginal ultrasound)
Text: Menstruation cycle length was not influenced by the treatment. […] Sizes of right and left ovary differed slightly for each subject, but no clinically relevant changes were identified by the gynaecologists.

[5] = target: STS (Mus musculus, UniProt P50427); details: mice, cited from earlier work
Chain of STS (Mus musculus, UniProt P50427) (P50427 23-624): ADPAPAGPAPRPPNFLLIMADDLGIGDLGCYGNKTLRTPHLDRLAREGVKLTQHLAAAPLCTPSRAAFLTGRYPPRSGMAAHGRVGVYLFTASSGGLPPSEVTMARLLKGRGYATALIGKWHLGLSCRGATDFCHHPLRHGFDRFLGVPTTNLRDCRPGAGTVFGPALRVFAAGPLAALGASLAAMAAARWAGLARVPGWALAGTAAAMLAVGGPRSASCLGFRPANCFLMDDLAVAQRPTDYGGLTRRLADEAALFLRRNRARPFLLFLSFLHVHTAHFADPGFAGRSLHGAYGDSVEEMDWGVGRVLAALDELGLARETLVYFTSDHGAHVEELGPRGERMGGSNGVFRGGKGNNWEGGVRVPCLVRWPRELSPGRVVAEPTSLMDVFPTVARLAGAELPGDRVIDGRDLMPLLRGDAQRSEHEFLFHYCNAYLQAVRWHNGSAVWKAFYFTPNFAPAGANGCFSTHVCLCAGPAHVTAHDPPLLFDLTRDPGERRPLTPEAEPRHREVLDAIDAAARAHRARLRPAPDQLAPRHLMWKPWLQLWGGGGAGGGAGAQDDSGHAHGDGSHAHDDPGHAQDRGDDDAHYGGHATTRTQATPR

[6] = system: STS activity
Text: The above effect is confirmed on functional biomarkers of STS activity for at least 84 days. As described before, STS converts sulphate precursors of estrogens. Thus, by inhibiting STS activity a reduction in serum levels of estrone and DHEA and an increase in estrone sulphate and DHEA sulphate are expected. This effect is described by baseline corrected fold-changes of the E1-S to E1 and DHEA-S to DHEA ratios over time (study days).

[7] = target: T1, STS; details: cited from earlier work; remark: listed apart in the source
[8] = target: T1, STS; details: for AVG [%]: Average inhibition of Steroid Sulfatase in endometrium, Mean (SD), N = 8
Protocol: (§3) Blood samples were collected from each subject in order to determine pharmacodynamic parameters (sulfatase activity and hormonal profile). Ovarian and endometrium transvaginal ultrasounds throughout the study and an endometrial biopsy were performed.
(§4) The biopsy was scheduled between 5 to 8 days before the anticipated onset of the next menstrual cycle after treatment and 1 month after treatment cessation.
(§5) STS activity was determined by spiking specimens with labelled EI-S and by measuring its conversion to E1 per gram protein under standardized incubation conditions using LC-MS/MS. Protein concentration was evaluated with a validated colorimetric assay (Bradford method).

[9] = target: T1, STS; experiment: in vivo
Protocol: as §3, §4, §5

[10] = target: T1, STS; details: in vivo
Protocol: as §1, §2

[11] = target: T1, STS; experiment: STS activity in PBMCs (Phase I study, labelled E1-S conversion to E1, LC-MS/MS)
Protocol: as §1, §2

[12] = daily oral 0.5 or 1 mg/kg for 21 days, end of the treatment
[13] = maximum during the NETA treatment period (values of days 8 to 29)

Structure (SMILES): NS(=O)(=O)Oc1ccc2c3c(c(=O)oc2c1)CCCCC3
- blocking STS activity in both eutopic and ectopic tissues [1]: effective

Structure (SMILES): C[C@]12CC[C@@H]3c4ccc(OS(N)(=O)=O)cc4CC[C@H]3[C@@H]1CC[C@@H]2O [E2MATE, Estradiol-3-o-sulfamate]
- mean concentration-time profiles for D4A [2]: No relevant differences
- mean concentration-time profiles for T [2]: No relevant differences
- E2 concentrations [2]: Normal mean concentration-time profiles
- P4 concentrations [2]: Normal mean concentration-time profiles
- tolerability [3]: well tolerated
- effect on ovarian size [4]: no apparent effect
- lesion weight and size [5, 12]: decreased
- number of lesions [5, 12]: without a reduction
- STS activity inhibition in the uterus or in induced lesions ([5]; daily oral dose, highest dose (1 mg/kg) for 21 days): ≤ 36%
- Baseline relative change of the DHEA-S / DHEA [%] ([6]; Day 1): 0%
- Baseline relative change of the E1-S / E1 [%] ([6]; Day 1): 0%
- Baseline relative change of the DHEA-S / DHEA [%] ([6]; Day 8): 133%
- Baseline relative change of the E1-S / E1 [%] ([6]; Day 8): 208%
- Baseline relative change of the DHEA-S / DHEA [%] ([6]; Day 15): 116%
- Baseline relative change of the E1-S / E1 [%] ([6]; Day 15): 282%
- Baseline relative change of the DHEA-S / DHEA [%] ([6]; Day 22): 113%
- Baseline relative change of the E1-S / E1 [%] ([6]; Day 22): 218%
- Baseline relative change of the DHEA-S / DHEA [%] ([6]; Day 29): 148%
- Baseline relative change of the E1-S / E1 [%] ([6]; Day 29): 194%
- Baseline relative change of the DHEA-S / DHEA [%] ([6]; Day 57): 195%
- Baseline relative change of the E1-S / E1 [%] ([6]; Day 57): 218%
- Baseline relative change of the DHEA-S / DHEA [%] ([6]; Day 85): 232%
- Baseline relative change of the E1-S / E1 [%] ([6]; Day 85): 243%
- Baseline relative change of the DHEA-S / DHEA [%] ([6]; Day 113): 175%
- Baseline relative change of the E1-S / E1 [%] ([6]; Day 113): 400%
- DHEA-S to DHEA ratios increased [6, 13]: up to 265%
- baseline relative mean increases of the E1-S to E1 ratio [6, 13]: up to 282%
- STS inhibitor activity [7]: active STS inhibitors
- AVG [%] [8]: 66.6 (2.7) %
- AVG (average effect over time (AUC)) ([8]; STS inhibition in endometrium samples): 66.60%
- After treatment ([8]; STS inhibition in endometrium samples, second row of Table 2): 87.50%
- Emax ([9]; read-out: Emax (maximal observed effect)): 91%
- inhibition at 4 mg ([9]; read-out: STS inhibition in endometrium): 91%

Structure (SMILES): C[C@]12CC[C@@H]3c4ccc(OS(N)(=O)=O)cc4CC[C@H]3[C@@H]1CCC2=O [EMATE, Estrone-3-o-sulfamate]
- STS inhibitor activity [7]: active STS inhibitors

Structure (SMILES): C#C[C@]1(OC(C)=O)CC[C@H]2[C@@H]3CCC4=CC(=O)CC[C@@H]4[C@H]3CC[C@@]21C [NETA, norethindrone acetate, reference compound]
- mean concentration-time profiles for D4A [2]: No relevant differences
- mean concentration-time profiles for T [2]: No relevant differences
- E2 concentrations [2]: suppressed
- P4 concentrations [2]: suppressed
- effect on ovarian size [4]: no apparent effect
- inhibition [10]: 12%
- average inhibition [11]: 4%
- AVG [%] [8]: 14.9 (27.0) %
- Emax [9]: 46.7%
